Measured values as given in publication PMC6018554, “2-[2-(4-(trifluoromethyl)phenylamino)thiazol-4-yl]acetic acid (Activator-3) is a potent activator of AMPK” (Scientific Reports, 2018).
Entries after “also recorded” stand apart in the source; their conditions may differ.

Legend:
[1] = test system: human recombinant α1β1γ1 AMPK γ1 mutants (R70G, R152G); assay: In vitro kinase assay with mutant AMPK pulled down from HEK-293T cells; format: biochemical; conditions: 30 nM Activator-3; γ1 R70G, R152G mutants
Experimental: (§1) A high binding Enzyme Immuno Assay (EIA) 96-well plate (Sigma: Cat# CLS3590) was coated with Acetyl CoA Carboxylase 2 (ACC: 175–271 amino acids) peptide, a direct substrate for AMPK, 100 ng per well (1:1000 ratio, Cat# 12–491, Upstate biotechnology) and incubated overnight at 25 °C. Reaction mixture was incubated at 30 °C for 2 h and reaction was stopped by washing the plate with 0.05% Tween 20 followed by incubation with pACC primary antibody and rabbit secondary antibody as described in cell based ELISA section. Assay buffer is composed of 10 mM DTT, 100 mM magnesium acetate, 50 μM ATP and 10 mM HEPES.
R70 and R152 residues in AMPK γ1 subunit (pDONR223-PRKAG1: purchased from addgene, cat# plasmid#23718) are mutated to glycine using overlapping extension PCR. Subsequently, the mutants were transferred into a triple tagged destination vector (Streptavidin, Flag and Biotin; SFB-pDEST) by using gateway cloning technology. The mutant DNA was transfected into HEK-293T cells using PEI following standard procedures. After 4 h of transfection, media was changed to DMEM containing 10% FBS. Cells were lysed in TENNS lysis buffer (20 mM Tris pH:8.0, 100 mM NaCl, 1 mM EDTA, 10 mM Na2H2P2O7, 10 mM NaF, 10 mM Na3VO4, 0.5% NP40) and subjected to pull down using streptavidin beads followed by biotin elution. To protect the protein from dephosphorylation, cells were treated with 500 μM AICAR prior to lysis. This purified protein was estimated by using nanodrop and taken for in vitro kinase assay to check whether Activator-3 is binding to the mutant AMPK or not, and the activity of the mutant protein was assessed by comparing with the wild type protein activity.

[2] = Human plasma protein binding; format: in vitro ADME; conditions: data not shown
Adenylate kinase = assay: AK activity assay kit; format: biochemical
[3] = target: T1, recombinant human AMPK α2β2γ2 (Homo sapiens, UniProt Q9UGJ0); assay: In vitro AMP kinase assay (pACC ELISA), α2β2γ2; format: biochemical
T1 construct: purchased SignalChem; host or cells: baculovirus expression
Excerpt: (§2) Having observed the effect of Activator-3 on the activation of AMPK in cell based assays, we next examined whether Activator-3 could activate AMPK directly or not. […] The activity of recombinant human AMPK (α1β1γ1, α2β1γ1, α2β2γ2 and α2β2γ3) in the presence of vehicle was considered as 100%. The EC50 of Activator-3 for the activation of α1β1γ1, α2β1γ1 and α2β2γ2 isozymes were similar. However, the activity of Activator-3 against α2β2γ3 was marginally higher (Fig. 1C).
as §1

[4] = target: human recombinant AMPK α2β1γ1 (Homo sapiens, UniProt P54619); assay: Phosphatase protection assay (PP2C); format: biochemical; design: host or cells: baculovirus expression; conditions: 10–100 nM
Experimental: The reaction was stopped by adding SDS-loading dye immediately to the reaction mixtures followed by boiling the samples at 95 °C for 10′. These samples were run on a 10% SDS-PAGE and probed for AMPK and pAMPK (1:1000; Cell Signaling Technologies).

[5] = test system: human recombinant AMPK isozymes; assay: In vitro AMP kinase assays, isozymes taken together; format: biochemical
Experimental: as §1

[6] = target: T2, recombinant human AMPK α2β2γ3 (Homo sapiens, UniProt Q9UGI9); assay: In vitro AMP kinase assay (pACC ELISA), α2β2γ3; format: biochemical
T2 construct: purchased SignalChem; host or cells: baculovirus expression
Excerpt: as §2, §1

[7] = test system: panel of 100 protein kinases; assay: Cell-free kinase panel (Kinexus), whole panel; format: biochemical; conditions: 10 µM
Experimental: To determine whether Activator-3 affects the activity of any other protein kinases, we screened it in cell-free assays against a panel of 100 protein kinases (Kinexus, Canada). […] Three kinases, DDR1 (−79%), SRC (−71%) and ALK5 (−61%) were inhibited by Activator-3 by more than 50% at 10 µM.

AMPK = assay: Cell based ELISA (pAMPK/pACC) in primary rat hepatocytes
Experimental: Primary rat hepatocytes were isolated by collagenase (type4, Invitrogen: Cat# 17104-019) digestion as described previously. Digested cells were suspended in DMEM supplemented with 10% FBS. Cells were seeded into 96-well plate (20,000 cells per well) pre-coated with collagen (2 mg/ml). As the cells were metabolically active, medium was changed after cells have attached and allowed to incubate overnight before performing cell based assay.
Approximately 40,000 cells per well were seeded into a 96 well plate (Biofil, cat# TCP011096) and incubated overnight at 37 °C and 5% CO2. After the seeded cells reached 80% confluence, cells were treated with Activator-3 with different working concentrations and 500 μM AICAR (Caymen chemicals, cat# 10010241-10) and incubated for 30 min to 2 h (depending upon the primary antibody used) at 37 °C and 5% CO2. Medium was aspirated and fixed with 4% of formaldehyde solution (diluted in 1X PBS) incubated for 1 h at 4 °C on shaker. Cells were washed with tween 20 (diluted in 1X PBS) on shaker for 5 minutes at room temperature (3 times). […] To quantify the bound primary antibody, cells were probed with a HRP conjugated secondary anti-rabbit antibody (1:2000 dilution, Bio-Rad; Cat# 170-6515) diluted in 1X PBST and incubated 2 h at RT on rocker. […] This reaction is stopped by adding 2 N H2SO4 and plate was immediately read at 450 nm using UV–Vis Spectrophotometer.

PFK1 = assay: PFK activity assay kit; format: biochemical; conditions: Activator-3 at 10 µM (≤10 µM)

T2 sequence (Q9UGI9 whole entry): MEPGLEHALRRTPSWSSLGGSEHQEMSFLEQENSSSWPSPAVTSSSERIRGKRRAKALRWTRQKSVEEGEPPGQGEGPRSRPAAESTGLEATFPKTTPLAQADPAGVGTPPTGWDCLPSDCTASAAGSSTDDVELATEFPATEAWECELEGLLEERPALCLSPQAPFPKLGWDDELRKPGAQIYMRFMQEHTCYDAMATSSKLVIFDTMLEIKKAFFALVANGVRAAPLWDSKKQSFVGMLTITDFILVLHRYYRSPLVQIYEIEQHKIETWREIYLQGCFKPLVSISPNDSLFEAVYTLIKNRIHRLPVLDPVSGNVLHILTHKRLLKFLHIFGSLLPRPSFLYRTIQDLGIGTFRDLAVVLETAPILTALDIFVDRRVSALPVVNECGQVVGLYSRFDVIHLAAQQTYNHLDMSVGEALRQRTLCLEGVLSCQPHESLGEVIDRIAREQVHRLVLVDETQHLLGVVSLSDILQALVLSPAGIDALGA
T2 sequence (P54646 whole entry partner): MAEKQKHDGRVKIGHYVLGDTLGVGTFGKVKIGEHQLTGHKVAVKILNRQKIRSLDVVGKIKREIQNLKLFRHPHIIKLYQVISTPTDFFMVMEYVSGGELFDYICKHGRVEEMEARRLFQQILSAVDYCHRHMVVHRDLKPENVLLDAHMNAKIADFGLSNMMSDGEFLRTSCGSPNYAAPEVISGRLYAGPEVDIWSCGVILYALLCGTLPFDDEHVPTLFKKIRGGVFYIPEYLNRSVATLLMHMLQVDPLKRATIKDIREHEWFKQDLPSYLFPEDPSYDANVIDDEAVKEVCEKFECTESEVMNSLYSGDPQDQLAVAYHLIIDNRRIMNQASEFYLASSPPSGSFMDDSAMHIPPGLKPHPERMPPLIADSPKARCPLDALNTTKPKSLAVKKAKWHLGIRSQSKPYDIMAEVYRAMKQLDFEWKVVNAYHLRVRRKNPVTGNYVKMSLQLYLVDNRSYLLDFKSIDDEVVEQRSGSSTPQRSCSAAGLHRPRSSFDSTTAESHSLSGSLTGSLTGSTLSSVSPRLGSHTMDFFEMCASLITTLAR
T2 sequence (O43741 whole entry partner): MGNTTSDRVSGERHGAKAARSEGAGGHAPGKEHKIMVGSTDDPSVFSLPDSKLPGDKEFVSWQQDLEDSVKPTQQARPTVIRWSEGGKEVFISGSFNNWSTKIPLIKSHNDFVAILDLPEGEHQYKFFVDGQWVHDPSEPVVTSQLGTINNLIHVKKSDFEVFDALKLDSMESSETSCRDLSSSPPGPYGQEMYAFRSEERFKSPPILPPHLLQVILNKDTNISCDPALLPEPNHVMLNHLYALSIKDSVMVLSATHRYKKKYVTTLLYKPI
T1 sequence (Q9UGJ0 whole entry): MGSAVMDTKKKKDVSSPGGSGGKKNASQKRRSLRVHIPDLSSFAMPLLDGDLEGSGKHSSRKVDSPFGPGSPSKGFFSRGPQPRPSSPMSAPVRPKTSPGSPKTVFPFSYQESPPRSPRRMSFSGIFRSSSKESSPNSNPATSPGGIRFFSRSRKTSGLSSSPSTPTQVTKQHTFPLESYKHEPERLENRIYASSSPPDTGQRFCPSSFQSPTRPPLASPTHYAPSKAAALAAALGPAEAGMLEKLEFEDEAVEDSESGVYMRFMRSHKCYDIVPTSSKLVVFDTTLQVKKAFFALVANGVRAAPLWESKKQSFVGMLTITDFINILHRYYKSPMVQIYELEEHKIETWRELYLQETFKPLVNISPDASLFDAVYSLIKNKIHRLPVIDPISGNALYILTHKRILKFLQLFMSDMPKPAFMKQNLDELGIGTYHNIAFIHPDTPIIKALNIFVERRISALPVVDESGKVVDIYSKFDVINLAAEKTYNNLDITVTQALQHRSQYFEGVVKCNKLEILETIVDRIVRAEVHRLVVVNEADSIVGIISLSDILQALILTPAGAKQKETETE
T1 sequence (P54646 whole entry partner): as the sequence (P54646 whole entry partner) above
T1 sequence (O43741 whole entry partner): as the sequence (O43741 whole entry partner) above
human recombinant AMPK α2β1γ1, sequence (P54619 whole entry): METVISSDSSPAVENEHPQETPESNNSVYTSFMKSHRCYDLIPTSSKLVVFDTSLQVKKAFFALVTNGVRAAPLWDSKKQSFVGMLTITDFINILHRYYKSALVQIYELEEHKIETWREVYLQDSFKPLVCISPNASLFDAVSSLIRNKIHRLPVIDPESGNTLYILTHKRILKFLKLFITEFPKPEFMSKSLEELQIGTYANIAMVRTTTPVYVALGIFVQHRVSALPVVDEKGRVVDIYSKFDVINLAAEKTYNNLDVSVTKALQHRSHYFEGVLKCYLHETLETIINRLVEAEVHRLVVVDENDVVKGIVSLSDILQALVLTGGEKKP
human recombinant AMPK α2β1γ1, sequence (P54646 whole entry partner): as the sequence (P54646 whole entry partner) above
human recombinant AMPK α2β1γ1, sequence (Q9Y478 whole entry partner): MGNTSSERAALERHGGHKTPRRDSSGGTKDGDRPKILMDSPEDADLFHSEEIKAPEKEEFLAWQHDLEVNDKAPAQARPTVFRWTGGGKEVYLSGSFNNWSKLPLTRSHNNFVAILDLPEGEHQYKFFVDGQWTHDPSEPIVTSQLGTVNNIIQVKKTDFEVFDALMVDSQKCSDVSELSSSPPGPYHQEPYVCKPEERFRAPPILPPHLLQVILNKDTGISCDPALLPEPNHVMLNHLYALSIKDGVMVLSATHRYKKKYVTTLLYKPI

fraction unbound [2]: ~0.2
effect on Adenylate kinase activity (Adenylate kinase; 1 µM): minimally affected
effect on Adenylate kinase activity (Adenylate kinase; ≤10 µM): unaffected
change of AMPK activity stimulated by 100 µM AMP ([3]; Activator-3 1 nM to 10 μM with 100 µM AMP): minimal decrease
EC50 ([3]; read-out: EC50 allosteric activation hα2β2γ2): ~26 nM
protection against PP2C mediated dephosphorylation of Thr172 AMPK [4]: provided protection
activation of AMPK [5]: 30–40%
increase of AMPK activity over 100 µM AMP alone ([6]; co-treatment Activator-3 and 100 µM AMP): > 30%
EC50 ([6]; read-out: EC50 allosteric activation hα2β2γ3): ~4 nM
SMILES: O=C(O)Cc1csc(Nc2ccc(C(F)(F)F)cc2)n1 [Activator-3, 2-[2-(4-(trifluoromethyl)phenylamino)thiazol-4-yl]acetic acid]
AMPK activity of mutant proteins vs wild type [1]: significant reduction
effect on kinase activity, majority of panel [7]: not affected
EC50 (AMPK): ~28 nM
effect on PFK1 activity (PFK1): unaffected; also recorded: no effect
